Measurements from paper PMC9202945 (2022).
One block for each compound: values may come before it.

Assays:
[1] = system: Cy5-hTERT-FL (DNA, G4) GGGGAGGGGCTGGGAGGGCCCGGAGGGGGCTGGGCCGGGGACCCGGGAGGGGTCGGGACGGGGCGGGG; assay: microscale thermophoresis; settings: 25 mM KCl, pH 7.2, 1.5% DMSO
[2] = system: PQS23 (FRET-labelled) (DNA, G4) AGGGGGCTGGGCCGGGGACCCGGGAGGGGTCGGGACGGGGCGGGG; assay: fluorescence thermal shift assay; settings: 100 μM compound, 0.5 μM DNA, phosphate buffer
[3] = system: Ctrl HP (FRET-labelled) (DNA, hairpin) GCATGCTTTTGCATGC; assay: fluorescence thermal shift assay; settings: 100 μM compound, 0.5 μM DNA, phosphate buffer
[4] = system: PQS12 (FRET-labelled) (DNA, G4) AGGGGAGGGGCTGGGAGGGCCCGGAGGGGGCTGGGCCGGGGACCCGGGA; assay: fluorescence thermal shift assay; settings: 100 mM K+; 100 μM compound, 0.5 μM DNA, phosphate buffer
[5] = system: TERT-FL (hTERT-FL) (DNA, G4) GGGGAGGGGCTGGGAGGGCCCGGAGGGGGCTGGGCCGGGGACCCGGGAGGGGTCGGGACGGGGCGGGG; assay: CD melting, 260 nm; settings: 20 mM KCl; 25 μM compound, 1.1 μM DNA
[6] = system: TERT-FL (hTERT-FL) (DNA, G4) GGGGAGGGGCTGGGAGGGCCCGGAGGGGGCTGGGCCGGGGACCCGGGAGGGGTCGGGACGGGGCGGGG; assay: competition dialysis; settings: 185 mM K+, phosphate buffer, RT, 5 μM compound, 75 μM DNA as tetrads, per tetrad, per base
[7] = system: AT duplex (DNA, hairpin) ATATATATATCCCCATATATATAT; assay: competition dialysis; settings: 185 mM K+, phosphate buffer, RT, 5 μM compound, 75 μM DNA as base pairs, per base pair
[8] = system: GC duplex (DNA, hairpin) GCGCGCGCGCTTTTGCGCGCGCGC; assay: competition dialysis; settings: 185 mM K+, phosphate buffer, RT, 5 μM compound, 75 μM DNA as base pairs, per base pair
[9] = system: c-Myc G4 (DNA, G4) TGAGGGTGGGTAGGGTGGGTAA; assay: competition dialysis; settings: 185 mM K+, phosphate buffer, RT, 5 μM compound, 75 μM DNA as tetrads, per tetrad, per base
[10] = system: H-Tel G4 (DNA, G4) AGGGTTAGGGTTAGGGTTAGGG; assay: competition dialysis; settings: 185 mM K+, phosphate buffer, RT, 5 μM compound, 75 μM DNA as tetrads, per tetrad, per base
[11] = system: GC Triplex (DNA, triplex) CCCCCCCCTTTTGGGGGGGGTTTTCCCCCCCC; assay: competition dialysis; settings: 185 mM K+, phosphate buffer, RT, 5 μM compound, 75 μM DNA as triplets, per triplet, per base
[12] = system: PQS12 (DNA, G4) AGGGGAGGGGCTGGGAGGGCCCGGAGGGGGCTGGGCCGGGGACCCGGGA; assay: competition dialysis; settings: 185 mM K+; phosphate buffer, RT, 5 μM compound, 75 μM DNA as tetrads
[13] = system: PQS23 (DNA, G4) AGGGGGCTGGGCCGGGGACCCGGGAGGGGTCGGGACGGGGCGGGG; assay: competition dialysis; settings: 185 mM K+; phosphate buffer, RT, 5 μM compound, 75 μM DNA as tetrads

SMILES: CCc1nc(N(CCC(=O)NC(C)C)CCc2ccccc2)c2ccccc2n1
Kd ([1]; BPEK buffer, 20 nM DNA): 5 [1, 23] μM

SMILES: Cc1cnccc1NCCNC(=O)c1cccc(CC2CCNCC2)c1
binding [4]: no
binding ([2]; 100 mM K+): yes
binding ([3]; 100 mM K+): no

SMILES: Cc1nc(NCCc2ccccc2)c2ccccc2n1
Kd ([1]; BPEK buffer, 20 nM DNA): 13 [7, 24] μM

SMILES: COCCN1CC2CCC1CN(c1nc(N(C)C)nc(C)c1C)C2 (stereo not drawn)
binding [5]: yes
apparent Kd [6]: 22 µM
apparent Kd [7]: > 140 µM
apparent Kd [8]: > 140 µM
apparent Kd [9]: > 140 µM
apparent Kd [10]: > 140 µM
apparent Kd [11]: > 140 µM

SMILES: CN(CCc1ccccc1)c1nc(-c2ccc(F)cc2)nc2ccccc12
binding ([1]; BPEK buffer, up to 200 μM, no reliable fit): no

SMILES: NC(N)=NCCCS(=O)(=O)Nc1ccc(Nc2c3ccccc3nc3cc([N+](=O)[O-])ccc23)cc1
apparent Kd ([1]; BPEK buffer, 20 nM DNA, without calf thymus DNA, apparent): 2 µM

Other lines, results leading:

Kd ([1]; BPEK buffer, 20 nM DNA): 17 [7, 45] μM
binding ([2]; K+ (concentration not stated)): yes
binding ([3]; K+ (concentration not stated)): no
SMILES: CCCC(CCC)C1CCN(c2nc(CCN)nc3ccccc23)CC1

binding [5]: yes
apparent Kd [6]: 24 µM
apparent Kd [7]: > 140 µM
apparent Kd [8]: > 140 µM
apparent Kd [9]: > 140 µM
apparent Kd [10]: > 140 µM
apparent Kd [11]: > 140 µM
binding [12]: yes
binding [13]: yes
Kd ([1]; BPEK buffer, 20 nM DNA): 8 [4, 19] μM
SMILES: CN(CCc1ccccc1)c1nc(CCN)nc2ccccc12

Kd ([1]; BPEK buffer (8 mM sodium phosphate, 1 mM EDTA), 20 nM DNA): 3 µM
binding ([2]; K+ (concentration not stated)): yes
binding ([3]; K+ (concentration not stated)): no
SMILES: CCOc1ccccc1CCNc1nc(CCN)nc2ccccc12
